Reference: patent US9173395B2, “Use of substituted isoquinolinones, isoquinolindiones, isoquinolintriones and dihydroisoquinolinones or in each case salts thereof as active agents against abiotic stress in plants” (BAYER INTELLECTUAL PROPERTY GMBH, priority 2011, dated 2015)

Experiments:
[1] = test system: TRZAS; assay: Drought stress test on crop plants, visual damage rating, efficacy EF; assay type: in vivo, Triticum aestivum; conditions: dosage 25 g/ha, mean of three results
Protocol: (§1) Seeds of monocotyledonous and dicotyledonous crop plants were laid out in sandy loam in wood-fiber pots, covered with soil and cultivated in a greenhouse under good growth conditions. The test plants were treated at the early leaf stage (BBCH10-BBCH13). To ensure uniform water supply before commencement of stress, the potted plants were supplied with the maximum amount of water immediately beforehand by dam irrigation and, after application, transferred into plastic inserts in order to prevent subsequent, excessively rapid drying. The compounds according to the invention, formulated in the form of wettable powders (WP), wettable granules (WG), suspension concentrates (SC) or emulsion concentrates (EC), were sprayed onto the green parts of the plants as an aqueous suspension at an equivalent water application rate of 600 I/ha with addition of 0.2% wetting agent (agrotin). Substance application is followed immediately by stress treatment of the plants (cold or drought stress). […]
(§2) After the recovery phase had ended, the intensities of damage were rated visually in comparison to untreated, unstressed controls of the same age (in the case of drought stress) or the same growth stage (in the case of cold stress). The intensity of damage was first recorded as a percentage (100%=plants have died, 0%=like control plants). […]

[2] = test system: BRSNS; assay: as above; assay type: in vivo, Brassica napus; conditions: dosage 25 g/ha, mean of three results
Protocol: as §1, §2

With `O=c1[nH]ccc2ccc(-c3ccc(Cl)cc3F)cc12` [I.1-252, 7-(4-chloro-2-fluorophenyl)isoquinolin-1(2H)-one] the “EF (TRZAS)” value [1] was greater than 5% and the “EF (BRSNS)” value [2] was greater than 5%.
